Values quoted from earlier work as cited in patent US20090060993A1, “SOLID PHARMACEUTICAL COMPOSITION FOR ENHANCED DELIVERY OF COENZYME Q-10 AND UBIQUINONES” (priority 2007, published 2009).

Settings: humans

total absorption: less than 10%
Compound: COC1=C(OC)C(=O)C(C/C=C(\C)CC/C=C(\C)CC/C=C(\C)CC/C=C(\C)CC/C=C(\C)CC/C=C(\C)CC/C=C(\C)CC/C=C(\C)CC/C=C(\C)CCC=C(C)C)=C(C)C1=O [coenzyme Q-10, ubidecarenone]
